This is an account of results in the RepoRT retention time repository (doi:10.3390/metabo9050085).

SMILES strings stand for the structures.

A short description of the data set: Phenomenex Kinetex C18, 150 × 2.1 mm, 1.7 µm, 30 °C, 0.3 mL/min; A: water + 0.1% formic acid; B: acetonitrile + 0.1% formic acid; gradient (min/%B) 0/2 14/100 17/100 17/2 25/2. The settings on record: stereoisomer not certain.
In the case of `CC12CCC3C(CC(O)C4CC(O)CCC43C)C1CCC2O` (centres undefined), the LC retention time was found to be 8.18 min.
The figure for `CC12CCC3C(C(O)CC4CC(O)CCC43C)C1CC(O)C2` (centres undefined) is 7.39 min; for `CC12CCC3C(CCC4=CC(=O)CCC43CO)C1CCC2O` (centres undefined) it is 7.3 min.
Regarding `CC(=O)C1C(O)CC2C3CCC4=CC(=O)CCC4(C)C3CCC21C` (centres undefined), the LC retention time is 9.08 min.
